Data reported in ChEMBL document CHEMBL1201862, “PubChem BioAssay data set” (2004).
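Cells were grown in 96-well plates and exposed to each compound for 48 hours at five concentrations; endpoints were interpolated linearly between bracketing concentrations, or set to the highest concentration if not reached. Here, GI50 denotes the concentration required for 50% inhibition of growth.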 Active and inactive are the calls of the source. Cut-off read from the data, not from the text of the source: active = GI50 up to about 1.1 µM and inactive = higher.

What was measured:
Test in all cases: inhibition of tumour cell growth, NCI panel, 48 h
CAKI-1 = test system: CAKI-1
CCRF-CEM = test system: CCRF-CEM
DU-145 = test system: DU-145
EKVX = test system: EKVX
HCC 2998 = test system: HCC 2998
HCT-116 = test system: HCT-116
HOP-92 = test system: HOP-92
K562 = test system: K562
M14 = test system: M14
MDA-N = test system: MDA-N
MOLT-4 = test system: MOLT-4
NCI-H23 = test system: NCI-H23
NCI-H522 = test system: NCI-H522
OVCAR-3 = test system: OVCAR-3
OVCAR-8 = test system: OVCAR-8
SF-268 = test system: SF-268
SK-MEL-2 = test system: SK-MEL-2
U-251 = test system: U-251
UACC-257 = test system: UACC-257
UO-31 = test system: UO-31

Row | Structure (SMILES) | GI50 (CAKI-1) | GI50 (CCRF-CEM) | GI50 (DU-145) | GI50 (EKVX) | GI50 (HCC 2998) | GI50 (HCT-116) | GI50 (HOP-92) | GI50 (K562) | GI50 (M14) | GI50 (MDA-N) | GI50 (MOLT-4) | GI50 (NCI-H23) | GI50 (NCI-H522) | GI50 (OVCAR-3) | GI50 (OVCAR-8) | GI50 (SF-268) | GI50 (SK-MEL-2) | GI50 (U-251) | GI50 (UACC-257) | GI50 (UO-31)
1 | CC(C)(C)c1cc(C2COC(=O)COCC(=O)OCCOCCOCCO2)cc(C(C)(C)C)c1O (stereo not given) | 24.7 µM (inactive) | > 100 µM (inactive) | 21 µM (inactive) | > 75.7 µM (inactive) | 14.5 µM (inactive) | > 100 µM (inactive) | 22.9 µM (inactive) | > 100 µM (inactive) | 19.4 µM (inactive) | 19.6 µM (inactive) | > 100 µM (inactive) | > 77.6 µM (inactive) | > 52.8 µM (inactive) | > 100 µM (inactive) | 62.4 µM (inactive) | 18.2 µM (inactive) | 32.1 µM (inactive) | 34.3 µM (inactive) | > 61.7 µM (inactive) | 18.6 µM (inactive)
2 | CCCCCCCCCCCCCCCCCC(=O)Nc1ccn(C2OC(CO)C(O)C2O)c(=O)n1 (stereo not given) | 10.5 µM (inactive) | 0.097 µM (active) | 10.7 µM (inactive) | > 100 µM (inactive) | 8.36 µM (inactive) | 3.32 µM (inactive) | 58.1 µM (inactive) | 7.67 µM (inactive) | 14.2 µM (inactive) | > 100 µM (inactive) | 0.343 µM (active) | 4.8 µM (inactive) | 5.04 µM (inactive) | 7.93 µM (inactive) | 7.48 µM (inactive) | 20.1 µM (inactive) | > 100 µM (inactive) | 19.4 µM (inactive) | > 100 µM (inactive) | 5.87 µM (inactive)
3 | CN(C)Cc1cc(C(=O)/C=C/c2ccc(O)cc2)cc(CN(C)C)c1O | 28.8 µM (inactive) | 24.8 µM (inactive) | 53.6 µM (inactive) | 70 µM (inactive) | 79.4 µM (inactive) | 38.2 µM (inactive) | 30.2 µM (inactive) | 29.5 µM (inactive) | 27.6 µM (inactive) | 37.7 µM (inactive) | 26.7 µM (inactive) | 79.6 µM (inactive) | 23.4 µM (inactive) | 18.9 µM (inactive) | 81.7 µM (inactive) | 72.4 µM (inactive) | 30.3 µM (inactive) | 16 µM (inactive) | 46.2 µM (inactive) | 63 µM (inactive)
4 | OC1(c2ccc(Cl)cc2)c2ccccc2C2=Nc3ccccc3CN21 (stereo not given) | 58.3 µM (inactive) | > 65.9 µM (inactive) | 36.2 µM (inactive) | > 45.2 µM (inactive) | > 71.4 µM (inactive) | 6.9 µM (inactive) | > 60.3 µM (inactive) | > 100 µM (inactive) | > 100 µM (inactive) | > 70 µM (inactive) | 61.8 µM (inactive) | > 44.9 µM (inactive) | 25.1 µM (inactive) | 2.96 µM (inactive) | 13.2 µM (inactive) | 33.2 µM (inactive) | > 51.2 µM (inactive) | 23.7 µM (inactive) | > 100 µM (inactive) | 34.4 µM (inactive)
5 | O=Nc1c(-c2c(O)[nH]c3ccccc23)[nH]c2ccccc12 [INDIRUBIN-3-MONOXIME] | 0.64 µM (active) | 4.4 µM (inactive) | 2.63 µM (inactive) | 1.9 µM (inactive) | 4.27 µM (inactive) | 2.52 µM (inactive) | 8.77 µM (inactive) | 2.67 µM (inactive) | 5.61 µM (inactive) | 4.58 µM (inactive) | 4.15 µM (inactive) | 7.83 µM (inactive) | 3.48 µM (inactive) | 3.88 µM (inactive) | 4.45 µM (inactive) | 5.5 µM (inactive) | 1.91 µM (inactive) | 6.97 µM (inactive) | 18.3 µM (inactive) | 2.38 µM (inactive)
6 | COC(=O)c1c(CC(Cc2ccc3c(c2)CCCC3)C(=O)OC)ccc2c1CCCC2 (stereo not given) | > 100 µM (inactive) | 35.4 µM (inactive) | > 100 µM (inactive) | 19.5 µM (inactive) | 23.1 µM (inactive) | 72.8 µM (inactive) | 23 µM (inactive) | 32.9 µM (inactive) | > 100 µM (inactive) | 77.1 µM (inactive) | 27.2 µM (inactive) | 69.5 µM (inactive) | > 100 µM (inactive) | > 100 µM (inactive) | > 100 µM (inactive) | 55.3 µM (inactive) | > 100 µM (inactive) | 98.2 µM (inactive) | 24 µM (inactive) | 82.8 µM (inactive)
7 | CCC(=O)NC(Nc1cccc(F)c1C)(C(F)(F)F)C(F)(F)F | > 100 µM (inactive) | > 100 µM (inactive) | > 100 µM (inactive) | > 100 µM (inactive) | > 100 µM (inactive) | > 100 µM (inactive) | > 100 µM (inactive) | > 100 µM (inactive) | > 100 µM (inactive) | > 100 µM (inactive) | > 100 µM (inactive) | > 100 µM (inactive) | > 100 µM (inactive) | > 100 µM (inactive) | > 100 µM (inactive) | > 100 µM (inactive) | > 100 µM (inactive) | > 100 µM (inactive) | > 100 µM (inactive) | 94.6 µM (inactive)
8 | [O-][S+](C(c1ccccc1)=P(c1ccccc1)(c1ccccc1)c1ccccc1)c1ccc(Cl)cc1 (stereo not given) | 60.5 µM (inactive) | 20.9 µM (inactive) | 13.9 µM (inactive) | 27.3 µM (inactive) | 28.4 µM (inactive) | 20.7 µM (inactive) | 13.1 µM (inactive) | 14.2 µM (inactive) | 25.5 µM (inactive) | 13.3 µM (inactive) | 29.1 µM (inactive) | 26.7 µM (inactive) | 11.8 µM (inactive) | 22.3 µM (inactive) | 28.1 µM (inactive) | 20.4 µM (inactive) | 20.8 µM (inactive) | 21.2 µM (inactive) | 12.5 µM (inactive) | 46.1 µM (inactive)
9 | CCCC[C@@H]1CCN2C[C@@H](O)[C@@H](O)[C@@H]2[C@H]1O | > 100 µM (inactive) | > 100 µM (inactive) | > 100 µM (inactive) | > 100 µM (inactive) | > 100 µM (inactive) | > 100 µM (inactive) | > 100 µM (inactive) | > 100 µM (inactive) | > 100 µM (inactive) | > 100 µM (inactive) | > 100 µM (inactive) | > 100 µM (inactive) | > 100 µM (inactive) | > 100 µM (inactive) | > 100 µM (inactive) | > 100 µM (inactive) | > 100 µM (inactive) | > 100 µM (inactive) | > 100 µM (inactive) | > 100 µM (inactive)
10 | CN1C/C(=C\c2cccs2)C(O)/C(=C/c2cccs2)C1 (stereo not given) | 97.5 µM (inactive) | 27 µM (inactive) | > 100 µM (inactive) | > 100 µM (inactive) | 41.1 µM (inactive) | 72.4 µM (inactive) | 20.4 µM (inactive) | 57.8 µM (inactive) | > 100 µM (inactive) | > 100 µM (inactive) | 25.2 µM (inactive) | > 100 µM (inactive) | 35.1 µM (inactive) | > 100 µM (inactive) | > 100 µM (inactive) | > 100 µM (inactive) | > 100 µM (inactive) | > 100 µM (inactive) | 89.5 µM (inactive) | 97.3 µM (inactive)
11 | COc1cccc2c1C(=O)c1c(O)c3c(c(O)c1C2=O)C[C@@](O)(C(C)=O)C[C@@H]3OC1CC(N(C)C)C(O)C(C)O1 (stereo not given in full) | 0.00904 µM (active) | 0.00412 µM (active) | 0.000785 µM (active) | 0.00485 µM (active) | 0.0333 µM (active) | 0.00169 µM (active) | 0.084 µM (active) | 0.00318 µM (active) | 0.00439 µM (active) | 0.000226 µM (active) | 0.00309 µM (active) | 0.00508 µM (active) | 0.0046 µM (active) | 0.00649 µM (active) | 0.00405 µM (active) | 0.00436 µM (active) | 0.0798 µM (active) | 0.00425 µM (active) | 0.00555 µM (active) | 0.00371 µM (active)
12 | CC1(O)C(=O)OC2CC([C@]3(O)CCC4[C@@H]5C[C@H]6O[C@]67[C@@H](O)C=CC(=O)[C@]7(C)C5CC[C@@]43C)C1(C)C2 (stereo not given in full) | 11.8 µM (inactive) | 2.03 µM (inactive) | 26.5 µM (inactive) | 45 µM (inactive) | 42 µM (inactive) | 10.9 µM (inactive) | 3.44 µM (inactive) | 3.6 µM (inactive) | 12.6 µM (inactive) | 12.3 µM (inactive) | 2.89 µM (inactive) | 7.13 µM (inactive) | 1.82 µM (inactive) | 15.8 µM (inactive) | 25.1 µM (inactive) | 16 µM (inactive) | 13.8 µM (inactive) | 23.5 µM (inactive) | 11.5 µM (inactive) | 22.9 µM (inactive)
13 | c1cc2nnc1SCCSCCCSCCS2 | > 100 µM (inactive) | > 100 µM (inactive) | 2.86 µM (inactive) | > 100 µM (inactive) | > 100 µM (inactive) | > 100 µM (inactive) | 46.5 µM (inactive) | > 100 µM (inactive) | > 100 µM (inactive) | > 100 µM (inactive) | > 100 µM (inactive) | > 100 µM (inactive) | > 100 µM (inactive) | > 100 µM (inactive) | > 100 µM (inactive) | 2.88 µM (inactive) | > 100 µM (inactive) | > 100 µM (inactive) | > 100 µM (inactive) | > 100 µM (inactive)
14 | c1ccc(/C(=N/Nc2nc3ccccc3s2)C2CCCCC2)nc1 | 6.95 µM (inactive) | 1.98 µM (inactive) | 12.6 µM (inactive) | 11.9 µM (inactive) | < 0.01 µM (active) | 0.296 µM (active) | 7.48 µM (inactive) | 7.05 µM (inactive) | 10.3 µM (inactive) | 14.4 µM (inactive) | 0.203 µM (active) | 6.4 µM (inactive) | 2.76 µM (inactive) | 2.92 µM (inactive) | 4.16 µM (inactive) | 10.6 µM (inactive) | 15.7 µM (inactive) | 11.3 µM (inactive) | 4.32 µM (inactive) | 3.04 µM (inactive)
